biological target: RBM39 and the DCAF15 complex (RBM39-Flag / His-DCAF15-DDA1-DDB1) (Homo sapiens (Human), UniProt Q14498+Q66K64); experiment: DCAF15 RBM39 complex formation TR-FRET assay; assay type: binding; settings: RBM39(R150-D331) 3xFlag 50 nM, His-DCAF15-DDA1-DDB1 10 nM, 60 min room temperature
Experimental: A TR-FRET assay was used to assess the effect of compounds disclosed herein on the interaction between RBM39 and the DCAF15 complex. Test compounds were dissolved to form a 10 mM DMSO stock solution. A 45 μL aliquot of the stock solution was transferred to a 384 pp-plate, and a threefold, 8-point dilution was performed via transferring 15 μL compound solution into 30 μL of DMSO. The plates were then spun at room temperature at 1,000 RPM for 1 minute.
A 30 nL aliquot of the diluted compound was transferred to a 384 well plate, which was incubated at room temperature for 15 minutes. Next, Solutions 1, 2, and 3 were prepared as described in the below tables. A 5 μL aliquot of Solution 2 was added to each well, followed by 5 μL of Solution 3 to start the reaction. The final volume of each well was 10 μL. The plates were incubated at room temperature for 60 minutes, and then read.
Next, an RBM39 (R150-D331) 3× Flag used in TR-FRET assay was prepared:
Recombinant RBM39 protein is composed of the R1R2 of RBM39 (aa 150 to 331; UniProt: Q14498). The coding sequence was sub-cloned into pGEX4T-1-RBM39-flag vector, expressed as a GST-fusion protein with N-terminal TEV protease cleavage site. A 3× Flag tag was added to the C-terminal of R1R2 used in a FRET assay.

SMILES | EC50 [nM]
N#Cc1c[nH]c2c(NS(=O)(=O)c3cnc(C(F)F)s3)cccc12 [Compound 120] | 359
N#Cc1c[nH]c2c(NS(=O)(=O)c3nccs3)cc(F)cc12 [Compound 132] | 6650
O=S(=O)(Nc1cccc2c(Cl)c[nH]c12)c1nccs1 [Compound 133] | 2670
N#Cc1c[nH]c2c(NS(=O)(=O)c3nc(C(F)(F)F)cs3)cccc12 [Compound 134] | 1760
N#Cc1c[nH]c2c(NS(=O)(=O)c3cnc(Cl)s3)cccc12 [Compound 136] | 511
CC(C)c1cc(S(=O)(=O)Nc2cccc3c(C#N)c[nH]c23)on1 [Compound 138] | 423
CCc1nc(S(=O)(=O)Nc2ccc(F)c3c(Cl)c[nH]c23)c[nH]1 [Compound 146] | 505
O=S(=O)(Nc1cc(F)cc2c(Cl)c[nH]c12)c1nc(C(F)(F)F)cs1 [Compound 149] | 897
N#Cc1c[nH]c2c(NS(=O)(=O)c3nc(C(F)(F)F)cs3)cc(F)cc12 [Compound 150] | 1250
O=S(=O)(Nc1cccc2c(Cl)c[nH]c12)c1nc(C(F)(F)F)cs1 [Compound 151] | 344
Cc1nc(S(=O)(=O)Nc2cccc3c(C#N)c[nH]c23)cs1 [Compound 153] | 940
CCc1nc(S(=O)(=O)Nc2cc(F)cc3c(C#N)c[nH]c23)c[nH]1 [Compound 157] | 1840
CCc1nc(S(=O)(=O)Nc2cccc3c(Cl)c[nH]c23)c[nH]1 [Compound 158] | 433
O=S(=O)(Nc1ccc(F)c2c(Cl)c[nH]c12)c1nc(C(F)(F)F)cs1 [Compound 159, N-(3-chloro-4-fluoro-1H-indol-7-yl)-4-(trifluoromethyl)-1,3-thiazole-2-sulfonamide] | 450
O=S(=O)(Nc1cccc2c(C(F)(F)F)c[nH]c12)c1nccs1 [Compound 185] | 1010
O=S(=O)(Nc1cccc2c(C(F)(F)F)c[nH]c12)c1cncs1 [Compound 186] | 258
O=S(=O)(Nc1ccc(F)c2c(Cl)c[nH]c12)c1cncs1 [Compound 187] | 228
Cc1ccc(NS(=O)(=O)c2cncs2)c2[nH]cc(C(F)(F)F)c12 [Compound 198] | 47
Cc1ncc(S(=O)(=O)Nc2cccc3c(Cl)c[nH]c23)s1 [Compound 200] | 207
CC(C)(O)c1ncc(S(=O)(=O)Nc2cccc3c(C#N)c[nH]c23)s1 [Compound 202] | 241
O=S(=O)(Nc1cccc2c(Cl)c[nH]c12)c1cncs1 [Compound 203] | 583
O=S(=O)(Nc1cccc2c(Cl)c[nH]c12)c1cnc(C(F)F)s1 [Compound 204] | 130
N#Cc1c[nH]c2c(NS(=O)(=O)c3cnc(N4CCOCC4)s3)cccc12 [Compound 205] | 632
N#Cc1c[nH]c2c(NS(=O)(=O)c3cnsc3)cccc12 [Compound 215] | 420
N#Cc1c[nH]c2c(NS(=O)(=O)c3cnsn3)cccc12 [Compound 254] | 3920
N#Cc1c[nH]c2c(NS(=O)(=O)c3cnns3)cccc12 [Compound 255] | 1160

Continued, values first:

EC50 [nM] | SMILES
1630 | Cc1ccc(NS(=O)(=O)c2ncc(P(C)(C)=O)s2)c2[nH]cc(C#N)c12 [Compound 111, N-(3-cyano-4-methyl-1H-indol-7-yl)-5-(dimethylphosphoryl)thiazole-2-sulfonamide]
1360 | Cc1ccc(NS(=O)(=O)c2ncc(C(=O)N3CCOCC3)s2)c2[nH]cc(C#N)c12 [Compound 112]
3260 | N#Cc1c[nH]c2c(NS(=O)(=O)c3nccs3)ccc(F)c12 [Compound 114]
2130 | N#Cc1c[nH]c2c(NS(=O)(=O)c3ncc(Cl)s3)cccc12 [Compound 116]
99.6 | Cc1ccc(NS(=O)(=O)c2cnc(C(F)F)s2)c2[nH]cc(C#N)c12 [Compound 117]
168 | CCc1ncc(S(=O)(=O)Nc2ccc(C)c3c(C#N)c[nH]c23)o1 [Compound 118]
960 | CNC(=O)c1cnc(S(=O)(=O)Nc2ccc(C)c3c(C#N)c[nH]c23)s1 [Compound 126]
959 | Cc1ccc(NS(=O)(=O)c2ncc(C(=O)N(C)C)s2)c2[nH]cc(C#N)c12 [Compound 127]
650 | CCN(CC)C(=O)c1csc(S(=O)(=O)Nc2ccc(C)c3c(C#N)c[nH]c23)n1 [Compound 128]
1820 | Cc1ccc(NS(=O)(=O)c2ncc(C(=O)NCCO)s2)c2[nH]cc(C#N)c12 [Compound 129]
1130 | Cc1ccc(NS(=O)(=O)c2ncc(C(=O)N3CCCC3)s2)c2[nH]cc(C#N)c12 [Compound 130]
3800 | Cc1ccc(NS(=O)(=O)c2ncc(C(=O)N3CCN(C)CC3)s2)c2[nH]cc(C#N)c12 [Compound 131]
47 | Cc1ccc(NS(=O)(=O)c2cc(C(C)C)no2)c2[nH]cc(C#N)c12 [Compound 135]
6070 | CCc1nc(S(=O)(=O)Nc2ccc(C)c3c(C#N)c[nH]c23)cn1CC(=O)NC1CC1 [Compound 139]
6620 | CCc1nc(S(=O)(=O)Nc2ccc(C)c3c(C#N)c[nH]c23)cn1CC(=O)O [Compound 140]
919 | Cc1ccc(NS(=O)(=O)c2ncc(C(N)=O)s2)c2[nH]cc(C#N)c12 [Compound 141]
1960 | COCCNC(=O)c1cnc(S(=O)(=O)Nc2ccc(C)c3c(C#N)c[nH]c23)s1 [Compound 142]
2150 | Cc1ccc(NS(=O)(=O)c2ncc(C(=O)N3CCC(O)C3)s2)c2[nH]cc(C#N)c12 (stereo not drawn) [Compound 143]
1560 | Cc1ccc(NS(=O)(=O)c2ncc(C(=O)N3CCCCC3)s2)c2[nH]cc(C#N)c12 [Compound 144]
2030 | CCc1nc(S(=O)(=O)Nc2ccc(F)c3c(C#N)c[nH]c23)c[nH]1 [Compound 147]
1310 | N#Cc1c[nH]c2c(NS(=O)(=O)c3nc(C(F)(F)F)cs3)ccc(F)c12 [Compound 148]
281 | Cc1nc(S(=O)(=O)Nc2ccc(C)c3c(C#N)c[nH]c23)cs1 [Compound 152]
674 | Cc1nc(S(=O)(=O)Nc2cccc3c(C#N)c[nH]c23)sc1C [Compound 160]
978 | Cc1ccc(NS(=O)(=O)c2cn(CC(C)C)cn2)c2[nH]cc(C#N)c12 [Compound 161]
591 | CCCn1cnc(S(=O)(=O)Nc2ccc(C)c3c(C#N)c[nH]c23)c1 [Compound 162]
893 | N#Cc1c[nH]c2c(NS(=O)(=O)c3nc(Cl)cs3)ccc(F)c12 [Compound 163]
964 | N#Cc1c[nH]c2c(NS(=O)(=O)c3cncs3)ccc(F)c12 [Compound 199]
391 | Cc1ncc(S(=O)(=O)Nc2ccc(F)c3c(C#N)c[nH]c23)s1 [Compound 201]

Reference: US20240092770A1, “Heterocycle RMB39 Modulators” (Recursion Pharmaceuticals, Inc., priority 2022, published 2024)
